From US20180251431A1 (VERTEX PHARMACEUTICALS INCORPORATED, priority 2016, published 2018)

System: HEK293 cells
Test: HEK293 VLCFA-LPC IC50 determination (13C-labeled C26:0 LPC by UHPLC/MS)
Assay type: cell-based, human
Conditions: Homo sapiens, HEK293, HEK293 cells; average of one or more replicates; read-out: Average HEK293 IC50
In short: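 Suspension HEK293 cells (final 0.5 million/mL after mixing with equal volume) incubated 48 hours with compound plus 13C-acetate (1.0 mg/mL in added media), shaking at 37° C. Lipids extracted with hexane/isopropanol or methanol, C13:0 LPC standard. UHPLC/MS of 13C-labeled C26:0 LPC (638.500/104.100 m/z); IC50 by four-parameter fit.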

Compound: Cc1ncccc1-n1ccc(NC(=O)C2(c3ccccc3F)CC2)n1 [Compound 471, 1-(2-fluorophenyl)-N-[1-(2-methyl-3-pyridyl)pyrazol-3-yl]cyclopropanecarboxamide]
- IC50: > 5000 nM

Compound: Cc1ccncc1-n1ccc(NC(=O)C2(c3ccccc3F)CC2)n1 [Compound 472, 1-(2-fluorophenyl)-N-[1-(4-methyl-3-pyridyl)pyrazol-3-yl]cyclopropanecarboxamide]
- IC50: 56 nM

Compound: O=C(Nc1ccn(-c2ccccc2)n1)C1(c2cccs2)CC1 [Compound 474, N-(1-phenylpyrazol-3-yl)-1-(2-thienyl)cyclopropanecarboxamide]
- IC50: 19 nM

Compound: O=C(Nc1ccn(-c2ccccc2)n1)C1(c2ccc(F)cn2)CC1 [Compound 475, 1-(5-fluoro-2-pyridyl)-N-(1-phenylpyrazol-3-yl)cyclopropanecarboxamide]
- IC50: 270 nM

Compound: CC(C)(C(=O)Nc1ccn(-c2ccccc2)n1)c1ccccn1 [Compound 476, 2-methyl-N-(1-phenylpyrazol-3-yl)-2-(2-pyridyl)propanamide]
- IC50: 530 nM

Compound: O=C(Nc1ccn(-c2ccccc2)n1)C1(c2cnccn2)CC1 [Compound 477, N-(1-phenylpyrazol-3-yl)-1-pyrazin-2-yl-cyclopropanecarboxamide]
- IC50: 1500 nM

Compound: COc1cc(-n2ccc(NC(=O)C3(c4cccs4)CC3)n2)ccn1 [Compound 478, N-[1-(2-methoxy-4-pyridyl)pyrazol-3-yl]-1-(2-thienyl)cyclopropanecarboxamide]
- IC50: 120 nM

Compound: O=C(Nc1ccn(-c2ccc(F)c(F)c2)n1)C1(c2cccs2)CC1 [Compound 479, N-[1-(3,4-difluorophenyl)pyrazol-3-yl]-1-(2-thienyl)cyclopropanecarboxamide]
- IC50: 190 nM

Compound: O=C(Nc1ccn(-c2cc(F)cc(F)c2)n1)C1(c2cccs2)CC1 [Compound 480, N-[1-(3,5-difluorophenyl)pyrazol-3-yl]-1-(2-thienyl)cyclopropanecarboxamide]
- IC50: 230 nM

Compound: O=C(Nc1ccn(-c2ccc(F)cc2)n1)C1(c2cccs2)CC1 [Compound 481, N-[1-(4-fluorophenyl)pyrazol-3-yl]-1-(2-thienyl)cyclopropanecarboxamide]
- IC50: 160 nM

Compound: O=C(Nc1ccn(-c2ccncc2)n1)C1(c2cccs2)CC1 [Compound 482, N-[1-(4-pyridyl)pyrazol-3-yl]-1-(2-thienyl)cyclopropanecarboxamide]
- IC50: 39 nM

Compound: O=C(Nc1ccn(-c2cncc(F)c2)n1)C1(c2cccs2)CC1 [Compound 483, N-[1-(5-fluoro-3-pyridyl)pyrazol-3-yl]-1-(2-thienyl)cyclopropanecarboxamide]
- IC50: < 20 nM

Compound: O=C(Nc1ccn(-c2cncc(OC(F)F)c2)n1)C1(c2cccs2)CC1 [Compound 484, N-[1-[5-(difluoromethoxy)-3-pyridyl]pyrazol-3-yl]-1-(2-thienyl)cyclopropanecarboxamide]
- IC50: > 5000 nM

Compound: COc1cc(-n2ccc(NC(=O)C3(c4ccc(F)cn4)CC3)n2)ccn1 [Compound 485, 1-(5-fluoro-2-pyridyl)-N-[1-(2-methoxy-4-pyridyl)pyrazol-3-yl]cyclopropanecarboxamide]
- IC50: 1500 nM

Compound: O=C(Nc1ccn(-c2cc(F)cc(F)c2)n1)C1(c2ccc(F)cn2)CC1 [Compound 487, N-[1-(3,5-difluorophenyl)pyrazol-3-yl]-1-(5-fluoro-2-pyridyl)cyclopropanecarboxamide]
- IC50: 1200 nM

Compound: O=C(Nc1ccn(-c2ccc(F)cc2)n1)C1(c2ccc(F)cn2)CC1 [Compound 488, N-[1-(4-fluorophenyl)pyrazol-3-yl]-1-(5-fluoro-2-pyridyl)cyclopropanecarboxamide]
- IC50: 510 nM

Compound: O=C(Nc1ccn(-c2ccncc2)n1)C1(c2ccc(F)cn2)CC1 [Compound 489, 1-(5-fluoro-2-pyridyl)-N-[1-(4-pyridyl)pyrazol-3-yl]cyclopropanecarboxamide]
- IC50: 1500 nM

Compound: O=C(Nc1ccn(-c2cncc(OC(F)F)c2)n1)C1(c2ccc(F)cn2)CC1 [Compound 490, N-[1-[5-(difluoromethoxy)-3-pyridyl]pyrazol-3-yl]-1-(5-fluoro-2-pyridyl)cyclopropanecarboxamide]
- IC50: > 5000 nM

Compound: COc1cc(-n2ccc(NC(=O)C3(c4cnccn4)CC3)n2)ccn1 [Compound 491, N-[1-(2-methoxy-4-pyridyl)pyrazol-3-yl]-1-pyrazin-2-yl-cyclopropanecarboxamide]
- IC50: > 5000 nM

Compound: O=C(Nc1ccn(-c2ccc(F)c(F)c2)n1)C1(c2cnccn2)CC1 [Compound 492, N-[1-(3,4-difluorophenyl)pyrazol-3-yl]-1-pyrazin-2-yl-cyclopropanecarboxamide]
- IC50: > 5000 nM

Compound: O=C(Nc1ccn(-c2cc(F)cc(F)c2)n1)C1(c2cnccn2)CC1 [Compound 493, N-[1-(3,5-difluorophenyl)pyrazol-3-yl]-1-pyrazin-2-yl-cyclopropanecarboxamide]
- IC50: > 5000 nM

Compound: O=C(Nc1ccn(-c2ccc(F)cc2)n1)C1(c2cnccn2)CC1 [Compound 494, N-[1-(4-fluorophenyl)pyrazol-3-yl]-1-pyrazin-2-yl-cyclopropanecarboxamide]
- IC50: > 5000 nM

Compound: O=C(Nc1ccn(-c2ccncc2)n1)C1(c2cnccn2)CC1 [Compound 495, 1-pyrazin-2-yl-N-[1-(4-pyridyl)pyrazol-3-yl]cyclopropanecarboxamide]
- IC50: > 5000 nM

Compound: O=C(Nc1ccn(-c2cncc(OC(F)F)c2)n1)C1(c2cnccn2)CC1 [Compound 496, N-[1-[5-(difluoromethoxy)-3-pyridyl]pyrazol-3-yl]-1-pyrazin-2-yl-cyclopropanecarboxamide]
- IC50: > 5000 nM

Compound: Cc1cnc(C2(C(=O)Nc3ccn(-c4cncc(F)c4)n3)CC2)c(F)c1 [Compound 497, 1-(3-fluoro-5-methyl-2-pyridyl)-N-[1-(5-fluoro-3-pyridyl)pyrazol-3-yl]cyclopropanecarboxamide]
- IC50: 2100 nM

Compound: O=C(Nc1ccn(-c2cncc(F)c2)n1)C1(c2ncc(Cl)cc2F)CC1 [Compound 498, 1-(5-chloro-3-fluoropyridin-2-yl)-N-(1-(5-fluoropyridin-3-yl)-1H-pyrazol-3-yl)cyclopropane-1-carboxamide]
- IC50: 470 nM

Compound: COc1ccnc(-n2ccc(NC(=O)C3(c4ccccc4F)CC3)n2)c1 [Compound 501, 1-(2-fluorophenyl)-N-[1-(4-methoxy-2-pyridyl)pyrazol-3-yl]cyclopropanecarboxamide]
- IC50: > 5000 nM

Compound: COc1cccc(-n2ccc(NC(=O)C3(c4ccccc4F)CC3)n2)n1 [Compound 502, 1-(2-fluorophenyl)-N-[1-(6-methoxy-2-pyridyl)pyrazol-3-yl]cyclopropanecarboxamide]
- IC50: > 5000 nM

Compound: CC1CC1(C(=O)Nc1ccn(-c2cncc(F)c2)n1)c1ncccc1F (centres unmarked) [Compound 503, 1-(3-fluoro-2-pyridyI)-N-[1-(5-fluoro-3-pyridyl)pyrazol-3-yl]-2-methyl-cyclopropanecarboxamide]
- IC50: 110 nM

Compound: CC1CC1(C(=O)Nc1ccn(-c2cncc(Cl)c2)n1)c1ncccc1F (centres unmarked) [Compound 504, N-[1-(5-chloro-3-pyridyl)pyrazol-3-yl]-1-(3-fluoro-2-pyridyl)-2-methyl-cyclopropanecarboxamide]
- IC50: 120 nM

Compound: CC1CC1(C(=O)Nc1ccn(-c2ccc(F)cc2)n1)c1ncccc1F (centres unmarked) [Compound 505, N-[1-(4-fluorophenyl)pyrazol-3-yl]-1-(3-fluoro-2-pyridyl)-2-methyl-cyclopropanecarboxamide]
- IC50: 110 nM

Compound: CC1CC1(C(=O)Nc1ccn(-c2ccc(F)c(F)c2)n1)c1ncccc1F (centres unmarked) [Compound 506, N-[1-(3,4-difluorophenyl)pyrazol-3-yl]-1-(3-fluoro-2-pyridyl)-2-methyl-cyclopropanecarboxamide]
- IC50: 220 nM

Compound: Cc1cc(NC(=O)C2(c3ncccc3F)CC2C)nn1-c1ccc(F)cc1F (centres unmarked) [Compound 507, N-[1-(2,4-difluorophenyl)-5-methyl-pyrazol-3-yl]-1-(3-fluoro-2-pyridyl)-2-methyl-cyclopropanecarboxamide]
- IC50: > 5000 nM

Compound: CC1CC1(C(=O)Nc1ccn(-c2cc(F)cc(F)c2)n1)c1ncccc1F (centres unmarked) [Compound 508, N-[1-(3,5-difluorophenyl)pyrazol-3-yl]-1-(3-fluoro-2-pyridyl)-2-methyl-cyclopropanecarboxamide]
- IC50: 71 nM

Compound: COc1ncc(-n2ccc(NC(=O)C3(c4ncccc4F)CC3C)n2)cc1F (centres unmarked) [Compound 509, N-[1-(5-fluoro-6-methoxy-3-pyridyl)pyrazol-3-yl]-1-(3-fluoro-2-pyridyl)-2-methyl-cyclopropanecarboxamide]
- IC50: 180 nM

Compound: COc1cc(-n2ccc(NC(=O)C3(c4ncccc4F)CC3C)n2)ccn1 (centres unmarked) [Compound 510, 1-(3-fluoro-2-pyridyl)-N-[1-(2-methoxy-4-pyridyl)pyrazol-3-yl]-2-methyl-cyclopropanecarboxamide]
- IC50: 670 nM

Compound: CC1(C)CC1(C(=O)Nc1ccn(-c2cncc(F)c2)n1)c1ncccc1F (centres unmarked) [Compound 511, 1-(3-fluoro-2-pyridyl)-N-[1-(5-fluoro-3-pyridyl)pyrazol-3-yl]-2,2-dimethyl-cyclopropanecarboxamide]
- IC50: 310 nM

Compound: CC1(C)CC1(C(=O)Nc1ccn(-c2cncc(Cl)c2)n1)c1ncccc1F (centres unmarked) [Compound 512, N-[1-(5-chloro-3-pyridyl)pyrazol-3-yl]-1-(3-fluoro-2-pyridyl)-2,2-dimethyl-cyclopropanecarboxamide]
- IC50: 1100 nM

Compound: CC1(C)CC1(C(=O)Nc1ccn(-c2ccc(F)cc2)n1)c1ncccc1F (centres unmarked) [Compound 513, N-[1-(4-fluorophenyl)pyrazol-3-yl]-1-(3-fluoro-2-pyridyl)-2,2-dimethyl-cyclopropanecarboxamide]
- IC50: 980 nM

Compound: CC1(C)CC1(C(=O)Nc1ccn(-c2ccc(F)c(F)c2)n1)c1ncccc1F (centres unmarked) [Compound 514, N-[1-(3,4-difluorophenyl)pyrazol-3-yl]-1-(3-fluoro-2-pyridyl)-2,2-dimethyl-cyclopropanecarboxamide]
- IC50: 1800 nM

Compound: Cc1cc(NC(=O)C2(c3ncccc3F)CC2(C)C)nn1-c1ccc(F)cc1F (centres unmarked) [Compound 515, N-[1-(2,4-difluorophenyl)-5-methyl-pyrazol-3-yl]-1-(3-fluoro-2-pyridyl)-2,2-dimethyl-cyclopropanecarboxamide]
- IC50: > 5000 nM
